Measurements from PMC10779255, “Novel Hydroxamic Acids Containing Aryl-Substituted 1,2,4- or 1,3,4-Oxadiazole Backbones and an Investigation of Their Antibiotic Potentiation Activity” (International Journal of Molecular Sciences, 2023).
Entries after “also recorded” stand apart in the source; their conditions may differ.

Key:
[1] = system: E. coli MG1655; assay: Growth curves of E. coli MG1655 with antibiotics, with or without LpxC inhibitors (antibiotic potentiation); assay type: cell-based, Escherichia coli; settings: for Activity: combined action together with the antibiotic, marking used for QSAR; for potentiation of kanamycin (sensitivity of cells): kanamycin 0.62 μM; for potentiation of kanamycin (sensitivity of cells) / potentiation of rifampicin (sensitivity of cells): inhibitor 50 or 100 µM; for potentiation of kanamycin (sensitivity of cells) / potentiating activity with nalidixic acid (growth inhibition) / potentiation of rifampicin (sensitivity of cells): OD600 growth curves; for potentiating activity with nalidixic acid (growth inhibition): nalidixic acid 17.22 μM, inhibitor 50–100 µM; for potentiation of rifampicin (sensitivity of cells): rifampicin 6.08 μM; on Activity: key: active (1); inactive (0)
Method: (§1) Escherichia coli strain MG1655 and Pseudomonas aeruginosa strain ATCC 27853 were obtained from the American Type Culture Collection (ATCC; Rockville, MD, USA). Subculturing and inoculum preparation were prepared according to the Clinical and Laboratory Standards Institute (CLSI) recommended method, M7-A9 [42], using MHA and MHB.
Growth curves were obtained with a Bioscreen C automated growth analysis system. Cultures of E. coli MG1655 were grown overnight at 37 °C, diluted 1:100 in fresh medium, inoculated into honeycomb wells in triplicate, and grown at 37 °C with maximum shaking using the platform of the Bioscreen C instrument. […] OD600 values were recorded automatically at specified times, and the means of the triplicate cultures were plotted.

[2] = Cytotoxicity assay (Alamar Blue); assay type: cell-based; settings: human, HEK293 cells, 72 h exposure, mean ± SD, at least 3 independent experiments
Method: The HEK293 cell line was obtained from the ECACC (European Collection of Authenticated Cell Cultures, cat. 85120602, Salisbury, UK). The cells were grown in monolayer culture in Dulbecco’s Modified Eagle Medium (DMEM) (PanEco, Moscow, Russia) supplemented with 2 mM of L-glutamine, 1% penicillin/streptomycin (Capricorn Scientific, Ebsdorfergrund, Germany), and 10% heat-inactivated fetal bovine serum (HyClone, Cytiva, Pasching, Austria) in a humidified atmosphere of 5% CO2 and at 37 °C (Binder, Tuttlingen, Germany). For analysis, the HEK293 cells were seeded into a 96-well plate (Corning Incorporated, Corning, NY, USA) in 100 μL of complete culture medium at a final concentration of 1 × 10^4 cells/well and cultured for 24 h for proper attachment. Subsequently, the medium was removed, and cells were exposed to the test inhibitor with different concentrations for 72 h in 100 μL of fresh complete culture medium. The sensitivity of the cells to test inhibitor molecules was detected using the vital dye Alamar Blue (Invitrogen, Carlsbad, CA, USA). The Alamar Blue assay was performed according to the procedure described by O’Brien et al.. After incubation with test inhibitor molecules, 10 μL of Alamar Blue reagent was added to each well, cell culture plates were returned to a humidified incubator, and the fluorescence was read after 3 h. The plates were exposed to an excitation wavelength of 545 nm, and the emission at 600 nm was measured with the CLARIOstar Plus (BMG Labtech, Ortenberg, Germany, Software Version 5.70 R2). To determine corresponding 50% cellular cytotoxicity (CC50) values, a four-parameter sigmoidal fit curve model (GraphPad Prism 8 software) was used to measure the data.

[3] = system: P. aeruginosa ATCC 27853; assay: MIC (broth microdilution) and growth curves of antibiotics in combination with 9c or 9d; assay type: cell-based, Pseudomonas aeruginosa; settings: 24 h, broth microdilution
Method: as §1
Minimum inhibitory concentrations (MICs) for rifampicin and nalidixic acid were determined via the modified broth microdilution method in triplicate according to CLSI guidelines M7-A9 and M100-A30 [43]. The antibiotics were serially diluted twofold in 100 μL of MHB. The bacteria inoculum was 100 μL of a 1.0 × 10^6 CFU/mL dilution in MHB. MICs for antibiotics in the presence of 9c or 9d were determined with the same method.
MIC endpoints were read after 24 h of incubation with an iMark microplate absorbance reader (Bio-Rad, Hercules, CA, USA). Growth curves of P. aeruginosa ATCC 27853 in the presence of rifampicin/nalidixic acid and 9c/9d were obtained using a multifunction microplate reader, SuperMax 3100 (ShanghaiFlash, Shanghai, China). Cells were grown in triplicate at 37 °C with aeration.

O=C(NO)c1nc(-c2c(F)cccc2F)no1 [Compound 4a]
Activity [1]: 0 | CC50 at 72 h [2]: > 500 µM | melting point: 117.4 °C (dec.)

O=C(NO)c1nc(-c2ccc(OC(F)(F)F)cc2)no1 [Compound 4b]
Activity [1]: 0 | CC50 at 72 h [2]: 380 ± 10.2 µM | melting point: 108.6 °C (dec.)

O=C(NO)c1nc(-c2cc(F)c(F)c(F)c2)no1 [Compound 4c]
Activity [1]: 0 | CC50 at 72 h [2]: > 500 µM | melting point: 133.6 °C (dec.)

Cc1cccc(-c2noc(C(=O)NO)n2)c1 [Compound 4d]
Activity [1]: 0 | CC50 at 72 h [2]: 457 ± 18.2 µM | melting point: 106 °C (dec.)

COc1ccc(-c2noc(C(=O)NO)n2)cc1 [Compound 4e]
Activity [1]: 0 | CC50 at 72 h [2]: > 250 µM | melting point: 144 °C (dec.)

O=C(NO)c1nc(-c2ccc(I)cc2)no1 [Compound 4f]
Activity [1]: 0 | CC50 at 72 h [2]: 367 ± 53.9 µM | melting point: 181.3 °C (dec.)

O=C(Cc1nc(-c2c(F)cccc2F)no1)NO [Compound 9a]
Activity [1]: 0 | CC50 at 72 h [2]: 188 ± 31.2 µM | melting point: 149.7 °C (dec.)

O=C(Cc1nc(-c2ccc(OC(F)(F)F)cc2)no1)NO [Compound 9b]
Activity [1]: 0 | CC50 at 72 h [2]: 108 ± 23.9 µM | melting point: 177 °C (dec.)

O=C(NO)c1cccc(-c2nc(-c3c(F)cccc3F)no2)c1 [Compound 14a]
Activity [1]: 0 | CC50 at 72 h [2]: 25.5 ± 3.11 µM | melting point: 204.2 °C (dec.)

O=C(NO)c1cccc(-c2nc(-c3ccc(OC(F)(F)F)cc3)no2)c1 [Compound 14b]
Activity [1]: 0 | CC50 at 72 h [2]: 6.39 ± 1.32 µM | melting point: 191 °C (dec.)

O=C(NO)c1cccc(-c2nc(-c3cc(F)c(F)c(F)c3)no2)c1 [Compound 14c]
Activity [1]: 0 | CC50 at 72 h [2]: 4.53 ± 1.22 µM | melting point: 188.5 °C (dec.)

O=C(NO)c1ccc(-c2nc(-c3ccc(OC(F)(F)F)cc3)no2)cc1 [Compound 14d]
Activity [1]: 0 | CC50 at 72 h [2]: 5.28 ± 1.05 µM | melting point: 236 °C (dec.)

O=C(NO)c1ccc(-c2nc(-c3ccccc3)no2)cc1 [Compound 14e]
Activity [1]: 0 | CC50 at 72 h [2]: 15 ± 0.53 µM | melting point: 265.4 °C (dec.)

O=C(CCc1nc(-c2c(F)cccc2F)no1)NO [Compound 17a]
Activity [1]: 0 | CC50 at 72 h [2]: 30.8 ± 3.71 µM | melting point: 99 °C (dec.)

O=C(CCc1nc(-c2ccc(OC(F)(F)F)cc2)no1)NO [Compound 17b]
Activity [1]: 0 | CC50 at 72 h [2]: 42.4 ± 4.58 µM | melting point: 120 °C (dec.)

O=C(CCc1nc(-c2cc(F)c(F)c(F)c2)no1)NO [Compound 17c]
Activity [1]: 0 | CC50 at 72 h [2]: 59.2 ± 7.27 µM | melting point: 122 °C (dec.)

Cc1cccc(-c2noc(CCC(=O)NO)n2)c1 [Compound 17d]
CC50 at 72 h [2]: 21.3 ± 2.53 µM | melting point: 115.8 °C (dec.)

O=C(Cc1noc(-c2ccc(Cl)cc2)n1)NO [Compound 23a]
Activity [1]: 1 | potentiation of kanamycin (sensitivity of cells) [1]: significantly increased the sensitivity | potentiating activity with nalidixic acid (growth inhibition) [1]: inhibited bacterial growth less effectively; also recorded: less effective | potentiation of rifampicin (sensitivity of cells) [1]: significantly increased the sensitivity | CC50 at 72 h [2]: 112 ± 18.6 µM | melting point: 174 °C (dec.)

O=C(Cc1noc(-c2ccc(I)cc2)n1)NO [Compound 23b]
Activity [1]: 0 | CC50 at 72 h [2]: 169 ± 22.5 µM | melting point: 211.6 °C (dec.)

O=C(Cc1noc(-c2cccc(Cl)c2)n1)NO [Compound 23c]
Activity [1]: 1 | potentiation of kanamycin (sensitivity of cells) [1]: significantly increased the sensitivity | potentiating activity with nalidixic acid (growth inhibition) [1]: inhibited bacterial growth less effectively; also recorded: less effective | potentiation of rifampicin (sensitivity of cells) [1]: significantly increased the sensitivity | CC50 at 72 h [2]: 143 ± 3.84 µM | melting point: 146 °C (dec.)

O=C(Cc1noc(-c2cccc(I)c2)n1)NO [Compound 23d]
Activity [1]: 0 | CC50 at 72 h [2]: 171 ± 22.9 µM | melting point: 156.3 °C (dec.)

O=C(NO)c1cccc(-c2noc(-c3ccccc3F)n2)c1 [Compound 26]
Activity [1]: 0 | CC50 at 72 h [2]: 21.7 ± 3.43 µM | melting point: 199.3 °C (dec.)

O=C(NO)c1nnc(-c2ccc(I)cc2)o1 [Compound 30a, N-Hydroxy-5-(4-iodophenyl)-1,3,4-oxadiazole-2-carboxamide]
Activity [1]: 0 | CC50 at 72 h [2]: 62.2 ± 9.88 µM | melting point: 184.4 °C (dec.)

O=C(NO)c1nnc(-c2cccc(I)c2)o1 [Compound 30b, N-Hydroxy-5-(3-iodophenyl)-1,3,4-oxadiazole-2-carboxamide]
Activity [1]: 1 | potentiation of kanamycin (sensitivity of cells) [1]: not to kanamycin | potentiating activity with nalidixic acid (growth inhibition) [1]: inhibited bacterial growth less effectively; also recorded: weak potentiating activity | potentiation of rifampicin (sensitivity of cells) [1]: significantly increased the sensitivity | CC50 at 72 h [2]: > 200 µM | melting point: 274.9 °C (dec.)

Cc1cc(F)ccc1-c1nnc(C(=O)NO)o1 [Compound 30c, 5-(4-Fluoro-2-methylphenyl)-N-hydroxy-1,3,4-oxadiazole-2-carboxamide]
Activity [1]: 0 | CC50 at 72 h [2]: > 200 µM | melting point: 259.6 °C (dec.)

COc1ccc(-c2nnc(C(=O)NO)o2)c(OC)c1 [Compound 30d, 5-(2,4-Dimethoxyphenyl)-N-hydroxy-1,3,4-oxadiazole-2-carboxamide]
Activity [1]: 0 | CC50 at 72 h [2]: > 600 µM | melting point: 197.3 °C (dec.)

COc1cccc(-c2nnc(C(=O)NO)o2)c1OC [Compound 30e, 5-(2,3-Dimethoxyphenyl)-N-hydroxy-1,3,4-oxadiazole-2-carboxamide]
Activity [1]: 0 | CC50 at 72 h [2]: 770 ± 58.4 µM | melting point: 166.7 °C (dec.)

COc1ccc(-c2nnc(C(=O)NO)o2)cc1OC [Compound 30f, 5-(3,4-Dimethoxyphenyl)-N-hydroxy-1,3,4-oxadiazole-2-carboxamide]
Activity [1]: 0 | CC50 at 72 h [2]: 478 ± 50.5 µM | melting point: 130.7 °C (dec.)

CCn1cc(C(=O)O)c(=O)c2ccc(C)nc21 [nalidixic acid, reference compound]
MIC of antibiotic alone [3]: 17.22 µM

CO[C@H]1/C=C/O[C@@]2(C)Oc3c(C)c(O)c4c(O)c(c(/C=N/N5CCN(C)CC5)c(O)c4c3C2=O)NC(=O)/C(C)=C\C=C\[C@H](C)[C@H](O)[C@@H](C)[C@@H](O)[C@@H](C)[C@H](OC(C)=O)[C@@H]1C [rifampicin, reference compound]
MIC of antibiotic alone [3]: 4.86 µM
